Assays:
Type in all cases: in vivo
[1] = Emesis in treated cats; details: cats, 20 mg/kg
Description: (§1) By the term “emesis” is meant vomiting. Generally an emetic substance elicits emesis in less than 24 hours after administration, usually less than 8 hours, more usually less than 2 hours. By the term “substantially non-emetic” is meant that, generally, when a compound or composition of the invention is administered to a population of animals, more than 70% (or at least ⅔) of the animals are free of emesis. Preferably, more than 80%, most preferably more than 90%, of said population is free of emesis.
(§2) In the animals treated with the compounds above, there was substantially no emesis after 2, 8 and 24 hours. Generally long-term control of fleas and ticks was provided in dogs. In the cats treated, there was commercially acceptable control of fleas for at least one day post treatment.
(§3) The compounds listed below were formulated and tested as described in Biological Example 1, again at the dosage level of active ingredient of 10 mg/kg in dogs and 20 mg/kg in cats. Results at 1 DPT (day post-treatment) are tabulated below, where the compound numbers are the same as those listed in Tables 1, 2, 4, 5, 6, 7, 8, 9, 10, 11, 12 and 13 hereinabove.

[2] = Emesis in treated dogs; details: dogs, 10 mg/kg
Description: as §1, §2, §3

[3] = test system: cat fleas (Ctenocephalides felis); assay: Control of cat fleas on treated cats (Biological Examples 1-3); details: cats, 20 mg/kg, 30 mg/mL in 1:1 dimethyl sulfoxide/corn oil, 1 day post-treatment, versus placebo group
Description: (§4) All dogs were infested with cat fleas (Ctenocephalides felis) and with ticks (Rhipicephalus sanguineus) 1 day prior to administration of the compound. Cats were only infested with fleas. The initial flea and tick counts were performed 1 day after the administration of the compounds. At 7, 14, 21 and 28 days after treatment the dogs were re-infested with ticks and 8, 15, 22 and 29 days after treatment the dogs and cats were re-infested with fleas. At 1, 9, 16, 23 and 30 days after treatment the control of fleas and ticks in treated dogs and cats was determined versus a group of infested dogs and cats which received a placebo consisting of a 1:1 volume/volume solution of dimethyl sulfoxide and corn oil. To determine the efficacies of the compounds, the arthropods were combed from the animals and counted.
as §3
(§5) Testing was carried out as described in Biological Example 1. […] The Huang et al compound was deemed to have insufficient activity to be tested in cats.

[4] = test system: ticks (Rhipicephalus sanguineus); assay: Control of ticks on treated dogs (Biological Examples 1-3); details: dogs, 10 mg/kg, 30 mg/mL in 1:1 dimethyl sulfoxide/corn oil, 1 day post-treatment, versus placebo group
Description: as §4, §3, §5

[5] = test system: cat fleas (Ctenocephalides felis); assay: Control of cat fleas on treated dogs (Biological Examples 1-3); details: dogs, 10 mg/kg, 30 mg/mL in 1:1 dimethyl sulfoxide/corn oil, 1 day post-treatment, versus placebo group
Description: as §4, §3, §5

| Structure (SMILES) | % Emesis [1] | % Emesis [2] | % Control 1 DPT (Fleas) [3] | % Control 1 DPT (Fleas/Ticks): Ticks [4] | % Control 1 DPT (Fleas/Ticks): Fleas [5] |
| --- | --- | --- | --- | --- | --- |
| CCN(C(=O)OC(C)C)c1c(SC(F)(F)F)c(C#N)nn1-c1c(Cl)cc(C(F)(F)F)cc1Cl [Compound 73-1] | 0% | 0% | 93% | 100/100% | 100/100% |
| CCCOC(=O)N(CC)c1c(SC(F)(F)F)c(C#N)nn1-c1c(Cl)cc(C(F)(F)F)cc1Cl [Compound 74-1] | 0% | 0% | 100% | 87% | 99% |
| CCCN(C(=O)OC)c1c(SC(F)(F)F)c(C#N)nn1-c1c(Cl)cc(C(F)(F)F)cc1Cl [Compound 75-1] | 25% | 0% | 71% | 57% | 89% |
| CCCN(C(=O)OCC)c1c(SC(F)(F)F)c(C#N)nn1-c1c(Cl)cc(C(F)(F)F)cc1Cl [Compound 76-1] | 0% | 0% | 100% | 86% | 100% |
| CCCN(C(=O)OC(C)C)c1c(SC(F)(F)F)c(C#N)nn1-c1c(Cl)cc(C(F)(F)F)cc1Cl [Compound 77-1] | 0% | 0% | 99% | 10% | 98% |
| COC(=O)N(c1c(SC(F)(F)F)c(C#N)nn1-c1c(Cl)cc(C(F)(F)F)cc1Cl)C(C)C [Compound 79-1] | 0% | 0% | 87% | 86% | 96% |
| CCOC(=O)N(c1c(SC(F)(F)F)c(C#N)nn1-c1c(Cl)cc(C(F)(F)F)cc1Cl)C(C)C [Compound 80-1] | 0% | 0% | 99% | 94% | 100% |
| CC(C)OC(=O)N(c1c(SC(F)(F)F)c(C#N)nn1-c1c(Cl)cc(C(F)(F)F)cc1Cl)C(C)C [Compound 81-1] | 0% | 0% | 100% | 66% | 76% |
| COCCOCC(=O)N(C)c1c(S(=O)(=O)C(F)(F)F)c(C#N)nn1-c1c(Cl)cc(C(F)(F)F)cc1Cl [Compound 120-1] | 0% | 0% | 100% | 78% | 97% |
| CCC(=O)N(C)c1c(SC(F)(F)F)c(C#N)nn1-c1c(Cl)cc(C(F)(F)F)cc1Cl [Compound 123-1] | 25% | 0% | 100% | 0% | 74% |
| CN(C(=O)c1ccc(C(F)(F)F)cc1)c1c(SC(F)(F)F)c(C#N)nn1-c1c(Cl)cc(C(F)(F)F)cc1Cl [Compound 127-1] | 0% | 0% | 84% | 97% | 100% |
| CN(C(=O)c1ccco1)c1c(SC(F)(F)F)c(C#N)nn1-c1c(Cl)cc(C(F)(F)F)cc1Cl [Compound 130-1] | 25% | 0% | 93% | 100/100% | 100/100% |
| CN(C)C=Nc1c(SC(F)(F)F)c(C#N)nn1-c1c(Cl)cc(C(F)(F)F)cc1Cl [Compound 219, 3-cyano-1-(2,6-dichloro-4-trifluoromethylphenyl)-5-N′-dimethylaminomethylideneamino-4-trifluoromethylthiopyrazole] | 25% | 33% | 100% | 80% | 97% |
| N#Cc1nn(-c2c(Cl)cc(C(F)(F)F)cc2Cl)c(N=CNCC(F)(F)F)c1S(=O)(=O)C(F)(F)F [Compound 230] | 0% | 0% | 98% | 80% | 100% |
